pIC50, pKi: −log10 of the molar value. Like-named read-outs stand apart in the source and are kept apart here.
What was measured:
Kv11.1 (hERG) = Kv11.1 (hERG) (Homo sapiens (Human), UniProt Q12809); assay: Kv11.1 (hERG) ion channel activity (patch clamp assay), HEK293 cells transfected with hERG gene; conditions: hERG patch clamp assay (cells without asterisk)
[1] = molecular target: DNA-PK phosphorylation at serine 2056 (Homo sapiens (Human), UniProt P78527); assay: DNA-PK phosphorylation at serine 2056 (cellular), bleomycin-treated HCT116 cells, ELISA; format: cell-based; conditions: cellular DNA-PK phosphorylation at serine 2056, HCT116; read-out: IC50 pDNA-PK
How it was run: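 HCT116 cells were treated with 10 μM bleomycin plus test compounds for six hours at 37 °C. Phospho-Ser2056 DNA-PK measured by chemiluminescent ELISA, normalised to total DNA-PKcs signal; DMSO control as blank.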

DNA-PK = DNA-PK (Homo sapiens (Human), UniProt P78527); assay: DNA-PK assay (biochemical), flashplate 33P-ATP kinase assay; conditions: biochemical DNA-PK assay
How it was run: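 Reactions ran in streptavidin-coated flashplates and were halted by 200 mM EDTA, with a further 30 min at room temperature before saline washing.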

Kv11.1 (hERG), sequence (Q12809 whole entry): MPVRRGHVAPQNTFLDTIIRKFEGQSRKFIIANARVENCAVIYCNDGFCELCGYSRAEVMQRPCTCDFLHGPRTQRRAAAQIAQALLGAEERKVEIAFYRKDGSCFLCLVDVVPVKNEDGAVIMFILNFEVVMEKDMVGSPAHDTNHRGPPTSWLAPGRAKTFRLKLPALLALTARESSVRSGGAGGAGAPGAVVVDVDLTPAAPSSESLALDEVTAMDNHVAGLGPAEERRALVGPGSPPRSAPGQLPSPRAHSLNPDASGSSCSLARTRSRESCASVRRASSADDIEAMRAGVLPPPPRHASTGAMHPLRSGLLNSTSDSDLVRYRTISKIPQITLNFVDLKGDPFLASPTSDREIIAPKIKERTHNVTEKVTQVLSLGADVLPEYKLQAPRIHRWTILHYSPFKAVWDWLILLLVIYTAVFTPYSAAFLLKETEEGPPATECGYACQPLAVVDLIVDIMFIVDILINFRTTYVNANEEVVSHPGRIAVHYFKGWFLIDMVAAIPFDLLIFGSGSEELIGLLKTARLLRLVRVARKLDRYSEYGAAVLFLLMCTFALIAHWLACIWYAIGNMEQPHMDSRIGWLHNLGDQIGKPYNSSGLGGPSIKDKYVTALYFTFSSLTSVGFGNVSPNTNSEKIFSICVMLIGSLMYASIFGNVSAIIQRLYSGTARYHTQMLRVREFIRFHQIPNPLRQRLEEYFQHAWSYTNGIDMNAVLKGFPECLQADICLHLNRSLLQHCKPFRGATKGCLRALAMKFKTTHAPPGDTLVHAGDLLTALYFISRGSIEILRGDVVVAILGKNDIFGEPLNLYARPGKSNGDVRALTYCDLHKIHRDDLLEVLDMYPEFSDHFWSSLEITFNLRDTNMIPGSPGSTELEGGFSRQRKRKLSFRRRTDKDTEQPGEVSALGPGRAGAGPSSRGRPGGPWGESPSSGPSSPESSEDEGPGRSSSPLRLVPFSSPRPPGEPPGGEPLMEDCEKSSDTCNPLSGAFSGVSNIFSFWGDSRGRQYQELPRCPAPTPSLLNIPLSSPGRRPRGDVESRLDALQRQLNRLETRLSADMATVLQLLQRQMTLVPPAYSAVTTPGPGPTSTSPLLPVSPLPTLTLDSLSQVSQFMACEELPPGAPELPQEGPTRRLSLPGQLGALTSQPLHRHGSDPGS

pIC50 [1] | pIC50 (DNA-PK) | Compound | pKi (Kv11.1 (hERG); read-out: Ki [Kv1.11 hERG]) | pKi (Kv11.1 (hERG); Ki [Kv1.11 hERG])
5.30 to 6.30 | 8.15 to 8.52 | COc1ccc(C(O)c2cc(-c3ncnc4cc(N5CCOCC5)cnc34)c(F)cc2Cl)nn1 (stereo not drawn) [Example 257, [2-Chloro-4-fluoro-5-(7-morpholin-4-yl-pyrido[3,2-d}-pyrimidin-4-yl)-phenyl]-(6-methoxy-pyridazin-3-yl)-methanol] | < 4.60 | –
5.30 to 6.30 | 7.52 to 8.15 | COc1nccnc1C(C(N)=O)c1cc(-c2ncnc3cc(N4CCOCC4)cc(F)c23)c(F)cc1Cl (stereo not drawn) [Example 261, 2-[2-Chloro-4-fluoro-5-(5-fluoro-7-morpholin-4-yl-quinazolin-4-yl)-phenyl]-2-(3-methoxy-pyrazin-2-yl)acetamide] | – | 4.60 to 4.82
4.52 to 5.00 | 7.52 to 8.15 | Cc1nccnc1C(O)c1ccc(F)c(-c2ncnc3cc(N4CCOCC4)c(F)cc23)c1 (stereo not drawn) [Example 283, [4-Fluoro-3-(6-fluoro-7-morpholin-4-yl-quinazolin-4-yl)-phenyl]-(3-methyl-pyrazin-2-yl)-methanol] | < 4.60 | –
4.52 to 5.00 | 8.15 to 8.52 | NC(=O)C(c1ccc(F)c(-c2ncnc3cc(N4CCOCC4)ccc23)c1)c1nncc2sccc12 (stereo not drawn) [Example 285, 2-[4-Fluoro-3-(7-morpholin-4-yl-quinazolin-4-yl)-phenyl]-2-thieno-[2,3-d}pyridazin-4-yl-acetamide] | – | 4.60 to 4.82
5.30 to 6.30 | > 8.52 | NC(=O)C(c1cc(-c2ncnc3cc(N4CCOCC4)ccc23)c(F)cc1Cl)c1ncccc1Cl (stereo not drawn) [Example 289, 2-[2-Chloro-4-fIuoro-5-(7-morpholin-4-yl-quinazolin-4-yl)-phenyl]-2-(3-chloro-pyridin-2-yl)-acetamide] | – | 4.60 to 4.82
5.00 to 5.30 | 8.15 to 8.52 | NC(=O)C(c1ccc(F)c(-c2ncnc3cc(N4CCOCC4)ccc23)c1)c1nnc(Cl)c2ccsc12 (stereo not drawn) [Example 290, 2-(4-Chlorothieno-[2,3-d}pyridazin-7-yl)-2-[4-fluoro-3-(7-morpholin-4-yl-quinazolin-4-yl)-phenyl]acetamide] | > 5.00 | –
5.00 to 5.30 | 8.15 to 8.52 | NC(=O)C(c1ccc(F)c(-c2ncnc3cc(N4CCOCC4)ccc23)c1)c1nnc(Cl)c2sccc12 (stereo not drawn) [Example 291, 2-(7-Chlorothieno-[2,3-d}pyridazin-4-yl)-2-[4-fluoro-3-(7-morpholin-4-yl-quinazolin-4-yl)-phenyl]acetamide] | > 5.00 | –
4.52 to 5.00 | 7.52 to 8.15 | NC(=O)c1cncc(C(C(N)=O)c2ccc(F)c(-c3ncnc4cc(N5CCOCC5)ccc34)c2)n1 (stereo not drawn) [Example 292, 6-{Carbamoyl-[4-fluoro-3-(7-morpholin-4-yl-quinazolin-4-yl)-phenyl]methyl}-pyrazine-2-carboxylic acid amide] | < 4.60 | –
5.00 to 5.30 | 8.15 to 8.52 | NC(=O)C(c1cccnc1)c1cc(-c2ncnc3cc(N4CCOCC4)ccc23)c(F)cc1Cl (stereo not drawn) [Example 293, 2-[2-Chloro-4-fiuoro-5-(7-morpholin-4-yl-quinazolin-4-yl)-phenyl]-2-pyridin-3-ylacetamide] | < 4.60 | –
4.52 to 5.00 | 8.15 to 8.52 | NC(=O)C(c1cccnc1)c1cc(-c2ncnc3cc(N4CCOCC4)ccc23)c(F)cc1F (stereo not drawn) [Example 294, 2-[2,4-Difluoro-5-(7-morpholin-4-yl-quinazolin-4-yl)-phenyl]-2-pyridin-3-ylacetamide] | < 4.60 | –
4.52 to 5.00 | 7.52 to 8.15 | NC(=O)C(c1cccnc1)c1ccc(F)c(-c2ncnc3cc(N4CCOCC4)ccc23)c1 (stereo not drawn) [Example 295, 2-[4-Fluoro-3-(7-morpholin-4-yl-quinazolin-4-yl)-phenyl]-2-pyridin-3-ylacetamide] | < 4.60 | –
5.00 to 5.30 | 7.52 to 8.15 | Cc1cncc(C(O)c2ccc(F)c(-c3ncnc4cc(N5CCOCC5)ccc34)c2)n1 (stereo not drawn) [Example 296, [4-Floro-3-(7-morpholin-4-yl-quinazolin-4-yl)-phenyl]-(6-methyl-pyrazin-2-yl)-methanol] | < 4.60 | –
4.52 to 5.00 | 7.52 to 8.15 | NC(=O)C(c1cncc(Cl)c1)c1ccc(F)c(-c2ncnc3cc(N4CCOCC4)ccc23)c1 (stereo not drawn) [Example 297, 2-(5-Chloro-pyridin-3-yl)-2-[4-fluoro-3-(7-morpholin-4-yl-quinazolin-4-yl)-phenyl]acetamide] | – | 4.82 to 5.00
4.52 to 5.00 | 7.52 to 8.15 | NC(=O)C(c1cc(-c2ncnc3cc(N4CCOCC4)ccc23)c(F)cc1Cl)c1cccc2nncn12 (stereo not drawn) [Example 298, 2-[2-Chloro-4-fluoro-5-(7-morpholin-4-yl-quinazolin-4-yl)-phenyl]-2-[1,2,4]-triazolo[4,3-a]pyridin-5-ylacetamide] | < 4.60 | –
4.52 to 5.00 | 7.52 to 8.15 | NC(=O)C(c1ccc(F)c(-c2ncnc3cc(N4CCOCC4)ccc23)c1)c1ncnn2cccc12 (stereo not drawn) [Example 299, 2-[4-Fluoro-3-(7-morpholin-4-yl-quinazolin-4-yl)-phenyl]-2-pyrrolo-[2,1-f][1,2,4]triazin-4-ylacetamide] | > 5.00 | –
4.52 to 5.00 | 7.52 to 8.15 | NC(=O)C(c1cccnn1)c1cc(-c2ncnc3cc(N4CCOCC4)ccc23)c(F)cc1Cl (stereo not drawn) [Example 300, 2-[2-Chloro-4-fluoro-5-(7-morpholin-4-yl-quinazolin-4-yl)-phenyl]-2-pyridazin-3-ylacetamide] | < 4.60 | –
5.30 to 6.30 | 7.52 to 8.15 | Cc1cnc(C(C(N)=O)c2cc(-c3ncnc4cc(N5CCOCC5)ccc34)c(F)cc2Cl)c(C)n1 (stereo not drawn) [Example 301, 2-[2-Chloro-4-fluoro-5-(7-morpholin-4-yl-quinazolin-4-yl)-phenyl]-2-(3,5-dimethyl-pyrazin-2-yl)acetamide] | < 4.60 | –
5.00 to 5.30 | 8.15 to 8.52 | Nc1cncc(C(O)c2ccc(F)c(-c3ncnc4cc(N5CCOCC5)ccc34)c2)n1 (stereo not drawn) [Example 302, (6-Amino-pyrazin-2-yl)-[4-fluoro-3-(7-morpholin-4-yl-quinazolin-4-yl)-phenyl]methanol] | < 4.60 | –
5.00 to 5.30 | 7.52 to 8.15 | Cc1nccnc1C(C(N)=O)c1cc(-c2ncnc3cc(N4CCOCC4)ccc23)ccc1Cl (stereo not drawn) [Example 303, 2-[2-Chloro-5-(7-morpholin-4-yl-quinazolin-4-yl)-phenyl]-2-(3-methyl-pyrazin-2-yl)-acetamide] | – | 4.60 to 4.82
5.00 to 5.30 | 7.52 to 8.15 | COc1nccnc1C(C(N)=O)c1cc(-c2ncnc3cc(N4CCOCC4)ccc23)ccc1Cl (stereo not drawn) [Example 304, 2-[2-Chloro-5-(7-morpholin-4-yl-quinazolin-4-yl)-phenyl]-2-(3-methoxy-pyrazin-2-yl)acetamide] | < 4.60 | –
5.00 to 5.30 | 7.52 to 8.15 | COc1nccnc1C(C(N)=O)c1ccc(F)c(-c2ncnc3cc(N4CCOCC4)ccc23)c1 (stereo not drawn) [Example 305, 2-[4-Fluoro-3-(7-morpholin-4-yl-quinazolin-4-yl)-phenyl]-2-(3-methoxy-pyrazin-2-yl)acetamide] | < 4.60 | –

Compound | pIC50 [1] | pIC50 (DNA-PK) | pKi (Kv11.1 (hERG); read-out: Ki [Kv1.11 hERG]) | pKi (Kv11.1 (hERG); Ki [Kv1.11 hERG])
COc1ccc(C(O)c2ccc(F)c(-c3ncnc4cc(N5CCOCC5)cc(F)c34)c2)nn1 (stereo not drawn) [Example 260, [4-Fluoro-3-(5-fluoro-7-morpholin-4-yl-quinazolin-4-yl)-phenyl]-(6-methoxy-pyridazin-3-yl)-methanol] | > 6.30 | > 8.52 | < 4.60 | –

Reference: patent publication US9732094B2, “Arylquinazolines” (Merck Patent GmbH, priority 2013, dated 2017)
